Values after ≈ are worked out from the molar mass of the structure shown. Read-outs that look alike come from different tables or passages of the source.
Legend:
[1] = cited from earlier work
[2] = In vitro release of cosmetic active molecules from loaded microgels by a dialysis method; details: 35% ethanol in dialysate medium, pH 6, 25° C.
Experimental: The study of active molecules release kinetics was carried out by a dialysis method in order to verify that no microgel diffusion occur in dialysate medium (that may also be called “release medium”), and in order to observe the cosmetic active molecule release profile against time.
For that, active molecules-loaded microgel particle dispersions (1 mg/mg microgel) were dialyzed against a dialysate medium. Diffusion of the cosmetic active molecule from the loaded-microgel dispersion medium to the dialysate medium is observed, until an equilibrium concentration is reached between both media.
Loaded-microgel particles comprising an active molecule in an amount of 1 mg/(mg unloaded microgel) were placed inside a dialysis tube and dialyzed in different buffered dialysate media (having different pH, having different temperature, containing a solvent and/or containing a surfactant). The buffered dialysate medium can contain ethanol, citric acid, sodium phosphate dibasic or/and polyoxyethylene monooleate sorbitan (also named Polysorbate 80, Tween® 80 or INCI […]). Active substance concentration in the dialysate medium was determined by UV-Vis.
The effect of temperature on the release kinetics of active molecules was investigated with the dialysate method maintaining pH of the dialysate medium constant at 4.5. The in vitro release was studied at two different temperatures: 25° C. […]

[3] = cited from earlier work; remark: listed apart in the source

## CC(C)=CCCC(C)CCO (stereo not shown) [Citronellol, 3,7-dimethyloct-6-en-1-ol]
[1]; at 25° C.
  Solubility in water: 200 µg/mL (≈ 1280 µM)
[1]
  Solubility in ethanol: very soluble in ethanol

## CCCCC(CC)COC(=O)c1ccccc1O (stereo not shown) [Escalol, 2-ethylhexyl salicylate]
[1]
  Solubility in ethanol: soluble in ethanol
  Solubility in water: slighty soluble in water
[2]
  Incubation time in which 100% is released: ≤ 6 h

## O=C(O)c1ccccc1O [Salicylic acid, 2-Hydroxybenzoic acid, reference compound]
[1]
  Solubility in ethanol: soluble in ethanol

## CCCCCCOC(=O)c1ccccc1C(=O)c1ccc(N(CC)CC)cc1O [Uvinul-A, hexyl 2-[4-(diethylamino)-2-hydroxybenzoyl]benzoate]
[1]
  Solubility in ethanol: soluble in ethanol
  Solubility in water: insoluble in water

## Hyaluronic acid
[3]
  pKa: 3
[1]
  Solubility in water: soluble in water
